From patent publication US9474790B2, “Stable, protracted GLP-1/glucagon receptor co-agonists for medical use” (Novo Nordisk A/S, priority 2013, dated 2016)
pEC50, pIC50: −log10 of the molar value. Numbered stars: 1 amine (or outer) side, 2 acyl side, 3 side chain; on linkers, the order of the positions; unused ones are H or OH. Square brackets hold non-standard residues; d marks the D form. Side chains are listed from the residue outwards. Peptide text beside a SMILES is read from it. * marks the point of attachment. C18 diacid = O=C(O)CCCCCCCCCCCCCCCCC(=O)*; γGlu = O=C(O)[C@H](CCC(=O)[*:2])N[*:1]; AEEA = NCCOCCOCC(=O)O; Aib = CC(C)(N)C(=O)O

Columns and labels:
[1] = Thioflavin T (ThT) fibrillation assay for physical stability; assay type: physicochemical; conditions: 250 μM in 10 mM HEPES buffer, pH 7.5, 37° C., shaking 960 rpm
Procedure, shortened: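 Peptide at 250 μM in 10 mM HEPES pH 7.5 with 1 μM ThT, at 37° C with 960 rpm orbital shaking. Fluorescence (ex 444/em 485 nm) read every 20 min after 10 min pre-incubation; sigmoidal fit gives lag time (t0−2τ) and kapp (1/τ). Recovery is RP-HPLC peptide in the centrifuged, 0.22 μm-filtered supernatant as % of initial.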

[2] = Chemical stability assessment by RP-UPLC; assay type: physicochemical; conditions: 333 μM, 8 mM phosphate buffer pH 7.3, 37° C. vs 5° C.
Protocol: The purpose of this assay was to assess the chemical stability of the glucagon derivatives of the invention in aqueous solutions.
Chemical stability of glucagon derivatives or analogues was investigated by RP-UPLC separation and UV detection. Lyophilized samples were dissolved in a 8 mM Phosphate buffer pH 8.6, followed by adjustment to pH 7.3.using HCl to a final concentration of 333 μM. Samples were incubated for 14 days at 5° C. and 37° C. followed by RP-UPLC analysis. Purity was defined as the area percentage of the main peak in relation to the total area of all integrated peaks in each chromatogram. Purity loss after 14 days at 37° C. was determined as the difference in purity between the samples incubated at 5° C. and 37° C., divided by the purity of the sample after incubation for 14 days at 5° C.
RP-UPLC analysis was performed using a Waters BEH130 2.1 mm×150 mm, 1.7 μm column operated at 50° C. and a flow rate of 0.4 mL/min using a mobile phase system consisting of A: 0.05% TFA in MQ-water B: 0.05% TFA in Acetonitrile. UV-detection was performed at 215 nm. The typical gradient profile used for most of the samples is shown below.
For some individual derivatives or analogues eluting at substantially different retention times compared with the majority of derivatives or analogues, some adjustments to the gradient profile were made to better enable purity assessment comparison across samples. The data confirmed the improved chemical stability of the glucagon derivatives of this invention.

[3] = biological target: T1, human GLP-1 receptor (Homo sapiens, UniProt P43220); experiment: GLP-1 receptor potency, CRE luciferase reporter gene assay in BHK cells; assay type: cell-based; conditions: BHK cells expressing human GLP-1 receptor, read-out: EC50 GLP-1R
T1 construct: expressed in transfected cells; host or cells: BHK cells (parent BHKTS13), clone FCW467-12A/KZ10-1, with CRE luciferase
Procedure, shortened: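 BHK cells stably expressing human GLP-1 receptor with CRE-luciferase reporter, 5×10EE3 cells/well in phenol red-free DMEM with 10 mM Hepes, 2% ovalbumin, 0.2% Pluronic F-68. Compounds at final 1×10EE-6 to 1×10EE-13 M, 3 h at 37° C; steadylite luminescence; EC50 by four-parameter fit, in pM.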

[4] = biological target: T1, human GLP-1 receptor; experiment: GLP-1 receptor binding, 125I-GLP-1 displacement SPA on isolated membranes; conditions: displacement of 125I-GLP-1 from membranes; read-out: IC50 GLP-1R
Procedure, shortened: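 SPA displacement of 125I-GLP-1(7-36)NH2 from membranes of BHK cells expressing human GLP-1 receptor, with WGA beads, in 50 mM HEPES, 5 mM EGTA, 5 mM MgCl2, 0.005% Tween 20, pH 7.4. Incubated 2 h at 30°C; IC50 by non-linear regression, run at ≤0.001% or 2.0% final serum albumin.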

T1 sequence (P43220 24-463): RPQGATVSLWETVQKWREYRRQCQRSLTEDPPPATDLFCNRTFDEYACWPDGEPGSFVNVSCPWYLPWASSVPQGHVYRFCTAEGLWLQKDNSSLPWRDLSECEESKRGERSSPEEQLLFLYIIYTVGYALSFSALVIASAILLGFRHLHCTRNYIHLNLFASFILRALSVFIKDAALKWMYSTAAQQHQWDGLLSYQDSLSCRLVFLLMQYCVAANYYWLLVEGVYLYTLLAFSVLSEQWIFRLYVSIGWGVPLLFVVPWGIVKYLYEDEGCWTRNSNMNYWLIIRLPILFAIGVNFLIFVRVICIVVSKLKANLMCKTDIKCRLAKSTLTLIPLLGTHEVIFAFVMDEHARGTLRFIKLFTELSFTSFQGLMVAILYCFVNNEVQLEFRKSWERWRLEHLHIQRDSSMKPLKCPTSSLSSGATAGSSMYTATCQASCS

Row | SMILES | THT assay Lag time (Ex. 76) [1] | Purity loss; 14 days at 37° C. [2] | pEC50 [3] | pIC50 [4]
1 | CC(C)C[C@H](NC(=O)[C@H](Cc1ccc(O)cc1)NC(=O)[C@H](CCCCN)NC(=O)[C@H](CO)NC(=O)[C@H](CC(C)C)NC(=O)[C@H](CC(=O)O)NC(=O)[C@H](CO)NC(=O)[C@@H](NC(=O)[C@H](Cc1ccccc1)NC(=O)[C@@H](NC(=O)CNC(=O)[C@H](CCC(N)=O)NC(=O)C(C)(C)NC(=O)[C@@H](N)Cc1c[nH]cn1)[C@@H](C)O)[C@@H](C)O)C(=O)N[C@@H](CCC(=O)O)C(=O)N[C@@H](CO)C(=O)N[C@@H](CCCCN)C(=O)N[C@@H](CCCNC(=N)N)C(=O)N[C@@H](C)C(=O)N[C@@H](CCCNC(=N)N)C(=O)N[C@@H](CCC(=O)O)C(=O)N[C@@H](Cc1ccccc1)C(=O)N[C@H](C(=O)N[C@@H](CCC(N)=O)C(=O)N[C@@H](Cc1c[nH]c2ccccc12)C(=O)N[C@@H](CC(C)C)C(=O)N[C@@H](CC(C)C)C(=O)N[C@@H](CCCCNC(=O)CC[C@H](NC(=O)CC[C@H](NC(=O)COCCOCCNC(=O)COCCOCCNC(=O)CC[C@H](NC(=O)CCCCCCCCCCCCCCCCC(=O)O)C(=O)O)C(=O)O)C(=O)O)C(=O)N[C@H](C(N)=O)[C@@H](C)O)C(C)C [Example 22, N^ε29-[(4S)-4-carboxy-4-[[(4S)-4-carboxy-4-[[2-[2-[2-[[2-[2-[2-[[(4S)-4-carboxy-4-(17-carboxyheptadecanoylamino)butanoyl]amino]ethoxy]ethoxy]acetyl]amino]ethoxy]ethoxy]acetyl]amino]butanoyl]amino]butanoyl]-[Aib2,Leu10,Glu15,Lys17,Arg20,Glu21,Leu27,Lys28]-Glucagon amide] (H-H[Aib]QGTFTSDLSKYLESKRAREFVQWLLK([γGlu-γGlu-AEEA-AEEA-γGlu-C18 diacid])T-NH2; N-terminus assumed) | 45 h | 1% |  | 
2 | CC(C)C[C@H](NC(=O)[C@H](Cc1ccc(O)cc1)NC(=O)[C@H](CCCNC(=N)N)NC(=O)[C@H](CO)NC(=O)[C@@H](NC(=O)[C@H](CC(=O)O)NC(=O)[C@H](CO)NC(=O)[C@@H](NC(=O)[C@H](Cc1ccccc1)NC(=O)[C@@H](NC(=O)CNC(=O)[C@H](CCC(N)=O)NC(=O)C(C)(C)NC(=O)[C@@H](N)Cc1c[nH]cn1)[C@@H](C)O)[C@@H](C)O)C(C)C)C(=O)N[C@@H](CC(=O)O)C(=O)N[C@@H](C)C(=O)N[C@@H](CCCNC(=N)N)C(=O)N[C@@H](CCCNC(=N)N)C(=O)N[C@@H](C)C(=O)N[C@@H](CCC(N)=O)C(=O)N[C@@H](CC(=O)O)C(=O)N[C@@H](Cc1ccccc1)C(=O)N[C@H](C(=O)N[C@@H](CCC(N)=O)C(=O)N[C@@H](Cc1c[nH]c2ccccc12)C(=O)N[C@@H](CC(C)C)C(=O)N[C@@H](CC(C)C)C(=O)N[C@@H](CCCCNC(=O)COCCOCCNC(=O)COCCOCCNC(=O)CC[C@H](NC(=O)CC[C@H](NC(=O)CC[C@H](NC(=O)CCCCCCCCCCCCCCCCC(=O)O)C(=O)O)C(=O)O)C(=O)O)C(=O)N[C@H](C(N)=O)[C@@H](C)O)C(C)C [Example 72, N^ε28-[2-[2-[2-[(2-[2-[2-[[(4S)-4-carboxy-4-[[(4S)-4-carboxy-4-[[(4S)-4-carboxy-4-(17-carboxyheptadecanoylamino)butanoyl]amino]butanoyl]amino]butanoyl]amino]ethoxy]ethoxy]acetyl]amino]ethoxy]ethoxy]acetyl]-[Aib2,Val10,Arg12,Ala16,Leu27,Lys28]-Glucagon amide] (H-H[Aib]QGTFTSDVSRYLDARRAQDFVQWLLK([AEEA-AEEA-γGlu-γGlu-γGlu-C18 diacid])T-NH2) |  |  | 11.52 | 9.30
3 | CC(C)C[C@H](NC(=O)[C@H](CC(=O)O)NC(=O)[C@H](CC(C)C)NC(=O)[C@H](Cc1ccc(O)cc1)NC(=O)[C@H](CCCNC(=N)N)NC(=O)[C@H](CO)NC(=O)[C@@H](NC(=O)[C@H](CC(=O)O)NC(=O)[C@H](CO)NC(=O)[C@@H](NC(=O)[C@H](Cc1ccccc1)NC(=O)[C@@H](NC(=O)CNC(=O)[C@H](CCC(N)=O)NC(=O)C(C)(C)NC(=O)[C@@H](N)Cc1c[nH]cn1)[C@@H](C)O)[C@@H](C)O)C(C)C)C(=O)N[C@@H](CCCNC(=N)N)C(=O)N[C@@H](CCCNC(=N)N)C(=O)N[C@@H](C)C(=O)N[C@@H](CCC(N)=O)C(=O)N[C@@H](CC(=O)O)C(=O)N[C@@H](Cc1ccccc1)C(=O)N[C@H](C(=O)N[C@@H](CCC(N)=O)C(=O)N[C@@H](Cc1c[nH]c2ccccc12)C(=O)N[C@@H](CC(C)C)C(=O)N[C@@H](CC(C)C)C(=O)N[C@@H](CCCCNC(=O)COCCOCCNC(=O)COCCOCCNC(=O)CC[C@H](NC(=O)CC[C@H](NC(=O)CC[C@H](NC(=O)CCCCCCCCCCCCCCCCC(=O)O)C(=O)O)C(=O)O)C(=O)O)C(=O)N[C@H](C(N)=O)[C@@H](C)O)C(C)C [Example 73, N^ε28-[2-[2-[2-[[2-[2-[2-[[(4S)-4-carboxy-4-[[(4S)-4-carboxy-4-[[(4S)-4-carboxy-4-(17-carboxyheptadecanoylamino)butanoyl]amino]butanoyl]amino]butanoyl]amino]ethoxy]ethoxy]acetyl]amino]ethoxy]ethoxy]acetyl]-[Aib2,Val10,Arg12,Leu16,Leu27,Lys28]-Glucagon amide] (H-H[Aib]QGTFTSDVSRYLDLRRAQDFVQWLLK([AEEA-AEEA-γGlu-γGlu-γGlu-C18 diacid])T-NH2) |  |  | 11.30 | 8.82
